US20230293535A1, “ERBB/BTK INHIBITORS” (Dizal (Jiangsu) Pharmaceutical Co., Ltd., priority 2018, published 2023)
Counter-ions that a name gives are not always drawn. Like-named read-outs stand apart in the source and are kept apart here.

Experiments:
[1] = molecular target: T1, WT EGFR (Homo sapiens, UniProt P00533); assay: WT EGFR cellular phosphorylation inhibition in A-431 (hEGF stimulated, MSD); type: cell-based; details: A431 cells, 4 h compound, then 100 ng/ml hEGF 10 min;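 note: electrochemiluminescence read-out of EGFR Tyr1068 phosphorylation expressed as ratio to total EGFR, cells kept in medium with 1% FBS, compounds tested as a concentration series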
T1 construct: host or cells: A-431
T1 sequence (P00533 25-1210): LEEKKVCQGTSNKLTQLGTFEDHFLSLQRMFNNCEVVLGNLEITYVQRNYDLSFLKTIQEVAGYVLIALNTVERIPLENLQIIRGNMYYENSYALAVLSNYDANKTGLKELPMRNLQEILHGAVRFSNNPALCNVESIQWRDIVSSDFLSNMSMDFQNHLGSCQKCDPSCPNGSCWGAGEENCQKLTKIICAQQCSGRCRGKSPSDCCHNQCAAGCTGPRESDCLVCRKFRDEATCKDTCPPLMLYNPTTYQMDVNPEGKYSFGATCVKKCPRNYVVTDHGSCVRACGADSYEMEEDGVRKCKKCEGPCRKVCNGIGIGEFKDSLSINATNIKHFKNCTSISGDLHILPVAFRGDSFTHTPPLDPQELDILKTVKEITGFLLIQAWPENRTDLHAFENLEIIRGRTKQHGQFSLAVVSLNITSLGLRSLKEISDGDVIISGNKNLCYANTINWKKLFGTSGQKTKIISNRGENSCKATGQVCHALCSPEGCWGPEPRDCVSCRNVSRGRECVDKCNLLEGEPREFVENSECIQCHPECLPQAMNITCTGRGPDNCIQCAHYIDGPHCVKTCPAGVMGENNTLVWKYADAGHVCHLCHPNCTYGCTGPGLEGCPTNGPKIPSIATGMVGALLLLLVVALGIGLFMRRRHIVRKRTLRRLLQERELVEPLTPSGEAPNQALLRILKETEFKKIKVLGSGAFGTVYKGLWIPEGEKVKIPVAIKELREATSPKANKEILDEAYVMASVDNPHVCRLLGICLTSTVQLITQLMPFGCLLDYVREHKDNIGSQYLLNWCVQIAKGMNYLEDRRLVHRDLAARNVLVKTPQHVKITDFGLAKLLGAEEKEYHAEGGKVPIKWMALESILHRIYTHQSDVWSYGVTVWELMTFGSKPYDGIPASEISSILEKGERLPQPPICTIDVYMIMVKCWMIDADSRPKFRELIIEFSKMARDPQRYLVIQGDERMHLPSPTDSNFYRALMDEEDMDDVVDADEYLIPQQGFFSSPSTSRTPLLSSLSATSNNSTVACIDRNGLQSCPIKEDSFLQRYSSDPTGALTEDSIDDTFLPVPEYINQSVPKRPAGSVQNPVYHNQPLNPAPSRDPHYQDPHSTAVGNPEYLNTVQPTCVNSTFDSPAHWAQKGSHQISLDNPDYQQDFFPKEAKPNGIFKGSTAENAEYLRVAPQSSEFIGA
Procedure: One day before the test, WT or mutant cells were seeded in 96 well plates at appropriate concentrations with corresponding growth media supplemented with 1% FBS, and incubated overnight. The next day, tested compounds at a series of concentrations were added into each individual well of the plates, and the plates were incubated for 4 h at 37° C. with 5% CO2.
The EGFR (Y1068) phosphorylation level (activity) of cells in each well were then measured with MSD kit named “MULTI-SPOT®96 4-Spot HB Prototype EGFR Triplex [sequence]: pEGFR(Tyr1068),pEGFR(Tyr1173), Total EGFR” according to the manufacturer’s instruction (MESO SCALE DISCOVERY, Cat# N45ZB-1). The assay is an electrochemiluminescent method for determining both phosphorylated and total EGFR of cells with an MSD SECTOR® Imager and the ratio of p-EGFR/total EGFR can be generated by the machine. The Her2 (Y1248) phosphorylation level (activity) of cells in each well were measured with MSD Kit named “Phospho-ErbB2 (Tyr1248) Assay Whole Cell Lysate Kit” according to the manufacturer’s instruction (MESO SCALE DISCOVERY, Cat# K151CLD-3). The assay is an electrochemiluminescent method (MESO SCALE DISCOVERY) for determining both phosphorylated and total Her2 of cells with an MSD SECTOR® Imager and then the ratio of p-Her2/total Her2 can be generated by the machine.

[2] = system: NCI-H1975 EGFR L858R/T790M cells; assay: Cell proliferation, NCI-H1975 EGFR L858R/T790M (CellTiter-Glo, 72 h); type: cell-based; details: Homo sapiens, NCI-H1975, 72 h;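 note: viable cells quantified by luciferase-based ATP luminescence, proliferation expressed relative to DMSO-treated wells (100%) after subtracting a parallel plate read at the time of dosing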
[3] = In vitro rat hepatocytes clearance assay; details: male, rat, cryopreserved rat hepatocytes (suspension), rat hepatocytes Clint (µL/min/10^6cells), 1 µM-range incubation up to 100 min
[4] = system: DB cells; assay: BTK (wt) cell proliferation, DB (CellTiter-Glo, 72 h); type: cell-based; details: Homo sapiens, DB, DB cells, CellTiter-Glo, read-out: Non-BCR activated DB GI50;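 note: DB cells in 384-well plates given a dilution series of compound, viable cells read by ATP luminescence, growth expressed versus DMSO control after subtracting a time-zero plate reading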
Procedure: OCI-LY-10 at 3,750 cells/well, TMD-8 and Ri-1 at 2,000 cells/well, and DB at 1,250 cells/well, respectively, were sorted into 384-well plates in RPMI1640 medium with 10% FBS. After overnight incubation, all cells were incubated with compound at a series of concentrations. Meanwhile, a duplicated plate of each cell line was prepared for measuring G0 value. The dosed plates were further incubated for 72 hours and the number of viable cells was measured by CellTiter-Glo® Luminescent Cell Viability Assay (Promega), a luminescent method for determining the number of viable cells through measurement of cellular ATP concentration using Envision plate reader (PerkinElmer). The percentage of proliferation was calculated as: % Proliferation = 100 × (G3 value of sample well - G0 value)/(G3 value of DMSO control - G0 value).

[5] = molecular target: T2, human EGFR exon 20 V769_D770insASV (Homo sapiens, UniProt P00533, INS769ASV); assay: EGFR Exon20 ASV insertion cellular phosphorylation inhibition (MSD pEGFR Y1068/total EGFR); type: cell-based; details: Ba/F3 EGFR ASV ins cells, 4 h compound, p-EGFR(Y1068)/total EGFR;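 note: electrochemiluminescent readout on an MSD SECTOR Imager, IL3-independent transduced cells in medium with 1% FBS, compound concentration series at 37 °C and 5% CO2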
T2 construct: expressed in transfected cells; host or cells: Ba/F3 (DSMZ ACC-300), lentiviral transduction, puromycin selection, IL3 depletion

[6] = system: TMD-8 cells; assay: BTK (wt) cell proliferation, TMD-8 (CellTiter-Glo, 72 h); type: cell-based; details: Homo sapiens, TMD8, 72 h, TMD-8 cells, 72 h, CellTiter-Glo; read-out: BTK WT TMD-8 GI50;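 note: viable cells quantified by ATP-based luminescence, proliferation expressed as percent of DMSO control after subtracting a time-zero baseline plate read at dosing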
[7] = system: Ri-1 cells; assay: BTK (wt) cell proliferation, Ri-1 (CellTiter-Glo, 72 h); type: cell-based; details: Ri-1 cells, 72 h, CellTiter-Glo, read-out: BTK WT Ri-1 GI50;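 note: viable cells quantified as cellular ATP luminescence, proliferation normalized to a time-zero plate and the DMSO control, compounds tested across a dilution series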
[8] = system: OCI-LY-10 cells; assay: BTK (wt) cell proliferation, OCI-LY-10 (CellTiter-Glo, 72 h); type: cell-based; details: OCI-LY-10 cells, 72 h, CellTiter-Glo, read-out: BTK WT OCI-LY-10 GI50;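 note: viable cells quantified via cellular ATP luminescence, proliferation given as percent of DMSO control after subtracting a duplicate plate read at time of dosing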
[9] = system: Ba/F3 EGFR NPH ins cells; assay: Cell proliferation, Ba/F3 EGFR NPH ins (CellTiter-Glo, 72 h); type: cell-based; details: Ba/F3 EGFR, 72 h;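 note: IL3-independent cells carrying constitutively phosphorylated EGFR, compound dilution series, viable cells quantified by ATP luminescence, growth relative to DMSO wells after subtracting pre-dosing (day 0) baseline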
[10] = molecular target: T3, human EGFR exon 20 H773_V774insNPH (Homo sapiens, UniProt P00533, INS773NPH); assay: EGFR Exon20 NPH insertion cellular phosphorylation inhibition (MSD pEGFR Y1068/total EGFR); type: cell-based; details: Ba/F3 EGFR NPH ins cells, 4 h compound, p-EGFR(Y1068)/total EGFR;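 note: IL3-independent Ba/F3 cells with constitutively phosphorylated EGFR, compound exposure at 37 °C under 5% CO2, electrochemiluminescent MSD measurement of the p-EGFR to total EGFR ratio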
T3 construct: host or cells: Ba/F3
T3 sequence (P00533 with tags, fused parts or gaps INS773NPH): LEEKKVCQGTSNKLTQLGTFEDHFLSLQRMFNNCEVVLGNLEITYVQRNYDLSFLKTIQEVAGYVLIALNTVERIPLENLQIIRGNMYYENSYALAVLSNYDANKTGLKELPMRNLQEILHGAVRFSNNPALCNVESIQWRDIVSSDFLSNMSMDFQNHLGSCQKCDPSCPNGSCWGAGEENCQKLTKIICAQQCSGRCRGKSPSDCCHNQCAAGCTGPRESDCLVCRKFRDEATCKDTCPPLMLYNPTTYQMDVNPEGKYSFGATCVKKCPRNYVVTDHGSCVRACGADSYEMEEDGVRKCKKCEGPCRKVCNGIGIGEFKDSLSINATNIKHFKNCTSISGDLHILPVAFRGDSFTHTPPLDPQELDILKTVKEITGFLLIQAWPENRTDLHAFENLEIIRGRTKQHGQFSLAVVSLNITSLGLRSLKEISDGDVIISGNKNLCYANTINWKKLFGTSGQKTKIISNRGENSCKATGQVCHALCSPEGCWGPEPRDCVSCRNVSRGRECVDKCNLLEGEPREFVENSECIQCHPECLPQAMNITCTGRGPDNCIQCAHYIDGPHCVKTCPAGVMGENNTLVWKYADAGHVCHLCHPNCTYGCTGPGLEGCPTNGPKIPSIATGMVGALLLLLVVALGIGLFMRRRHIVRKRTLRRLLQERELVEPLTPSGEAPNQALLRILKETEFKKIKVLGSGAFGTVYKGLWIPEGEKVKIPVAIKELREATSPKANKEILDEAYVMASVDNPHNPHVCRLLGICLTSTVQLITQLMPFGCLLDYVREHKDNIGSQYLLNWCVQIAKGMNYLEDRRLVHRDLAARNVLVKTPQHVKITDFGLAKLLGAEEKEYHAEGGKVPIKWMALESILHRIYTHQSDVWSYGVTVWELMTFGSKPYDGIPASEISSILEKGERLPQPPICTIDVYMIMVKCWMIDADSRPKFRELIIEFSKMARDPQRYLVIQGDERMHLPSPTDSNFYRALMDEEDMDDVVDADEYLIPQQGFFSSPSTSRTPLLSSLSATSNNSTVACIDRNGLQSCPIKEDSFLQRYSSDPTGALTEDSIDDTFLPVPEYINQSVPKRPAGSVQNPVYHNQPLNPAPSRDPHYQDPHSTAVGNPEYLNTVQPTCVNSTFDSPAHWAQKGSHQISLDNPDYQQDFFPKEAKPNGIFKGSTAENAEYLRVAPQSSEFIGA

[11] = molecular target: T4, human Her2 exon 20 insertion mutation YVMA (Homo sapiens, UniProt P04626, INS775YVMA); assay: Her2 Exon 20 YVMA insertion cellular phosphorylation inhibition (MSD p-Her2 Y1248/total Her2); type: cell-based; details: Her2 YVMAins cells, 4 h compound;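 note: lentivirally transduced NIH-3T3 cells in 1% FBS medium, electrochemiluminescent MSD read-out, graded compound concentrations at 37 °C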
T4 construct: expressed in transfected cells; host or cells: NIH-3T3, lentiviral transduction, puromycin selection
T4 sequence (P04626 with tags, fused parts or gaps INS775YVMA): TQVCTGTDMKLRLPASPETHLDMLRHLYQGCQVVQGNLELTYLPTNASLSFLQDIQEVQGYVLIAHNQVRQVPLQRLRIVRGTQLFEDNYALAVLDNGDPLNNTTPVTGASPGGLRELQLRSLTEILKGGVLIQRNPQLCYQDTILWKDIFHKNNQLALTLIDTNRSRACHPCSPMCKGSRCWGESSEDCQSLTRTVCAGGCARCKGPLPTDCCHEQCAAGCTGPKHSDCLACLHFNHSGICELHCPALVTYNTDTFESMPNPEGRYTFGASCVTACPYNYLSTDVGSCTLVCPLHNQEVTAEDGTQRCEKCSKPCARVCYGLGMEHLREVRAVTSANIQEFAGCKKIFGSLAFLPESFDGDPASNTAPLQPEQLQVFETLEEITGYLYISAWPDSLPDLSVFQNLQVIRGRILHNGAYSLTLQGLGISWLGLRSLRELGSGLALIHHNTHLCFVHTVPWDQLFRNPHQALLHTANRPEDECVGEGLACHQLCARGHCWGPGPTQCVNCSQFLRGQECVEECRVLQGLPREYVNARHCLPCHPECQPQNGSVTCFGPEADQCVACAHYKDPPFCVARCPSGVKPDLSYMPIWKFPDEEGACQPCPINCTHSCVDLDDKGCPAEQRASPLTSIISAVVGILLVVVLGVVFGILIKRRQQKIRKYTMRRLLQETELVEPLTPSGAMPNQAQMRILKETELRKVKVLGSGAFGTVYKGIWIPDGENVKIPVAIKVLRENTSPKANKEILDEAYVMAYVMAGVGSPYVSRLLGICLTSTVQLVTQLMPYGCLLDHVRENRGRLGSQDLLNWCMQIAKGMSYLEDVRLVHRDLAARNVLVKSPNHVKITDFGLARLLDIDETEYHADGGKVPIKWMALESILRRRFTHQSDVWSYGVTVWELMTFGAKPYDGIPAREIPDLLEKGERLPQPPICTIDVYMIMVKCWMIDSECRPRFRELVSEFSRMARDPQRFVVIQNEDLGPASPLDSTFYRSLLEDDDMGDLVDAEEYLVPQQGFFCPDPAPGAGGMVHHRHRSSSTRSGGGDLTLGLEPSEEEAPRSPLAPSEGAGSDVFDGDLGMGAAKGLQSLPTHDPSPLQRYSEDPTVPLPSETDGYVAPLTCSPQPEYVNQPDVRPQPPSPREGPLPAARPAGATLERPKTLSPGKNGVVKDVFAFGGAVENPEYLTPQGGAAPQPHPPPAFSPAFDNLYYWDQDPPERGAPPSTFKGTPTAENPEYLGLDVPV

[12] = system: Ba/F3 EGFR ASV ins cells; assay: Cell proliferation, Ba/F3 EGFR ASV ins (CellTiter-Glo, 72 h); type: cell-based; details: Ba/F3 EGFR, 72 h;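 note: IL3-independent Ba/F3 cells transduced with EGFR V769_D770insASV, cellular ATP luminescence after compound exposure, growth relative to DMSO control with the day-0 baseline reading subtracted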
[13] = system: WT EGFR cell line A-431; assay: Cell proliferation, WT EGFR A431 (CellTiter-Glo, 72 h); type: cell-based; details: Homo sapiens, A-431, 72 h;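 note: proliferation from a luminescent ATP viability signal, expressed as 100 × (treated minus time-zero plate) over (DMSO control minus time-zero plate), cells grown with 10% FBS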
[14] = molecular target: T5, EGFR L858R&T790M (Homo sapiens, UniProt P00533, L858R/T790M); assay: EGFR L858R and T790M cellular phosphorylation inhibition in NCI-H1975 (MSD); type: cell-based; details: NCI-H1975 cells, 4 h compound, p-EGFR(Y1068)/total EGFR; read-out: EGFR L858R and T790M mutation IC50;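 note: phosphorylated and total EGFR detected by electrochemiluminescence, cells exposed to compound in medium containing 1% FBS at 37 °C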
T5 construct: host or cells: NCI-H1975
T5 sequence (P00533 25-1210 T790M/L858R): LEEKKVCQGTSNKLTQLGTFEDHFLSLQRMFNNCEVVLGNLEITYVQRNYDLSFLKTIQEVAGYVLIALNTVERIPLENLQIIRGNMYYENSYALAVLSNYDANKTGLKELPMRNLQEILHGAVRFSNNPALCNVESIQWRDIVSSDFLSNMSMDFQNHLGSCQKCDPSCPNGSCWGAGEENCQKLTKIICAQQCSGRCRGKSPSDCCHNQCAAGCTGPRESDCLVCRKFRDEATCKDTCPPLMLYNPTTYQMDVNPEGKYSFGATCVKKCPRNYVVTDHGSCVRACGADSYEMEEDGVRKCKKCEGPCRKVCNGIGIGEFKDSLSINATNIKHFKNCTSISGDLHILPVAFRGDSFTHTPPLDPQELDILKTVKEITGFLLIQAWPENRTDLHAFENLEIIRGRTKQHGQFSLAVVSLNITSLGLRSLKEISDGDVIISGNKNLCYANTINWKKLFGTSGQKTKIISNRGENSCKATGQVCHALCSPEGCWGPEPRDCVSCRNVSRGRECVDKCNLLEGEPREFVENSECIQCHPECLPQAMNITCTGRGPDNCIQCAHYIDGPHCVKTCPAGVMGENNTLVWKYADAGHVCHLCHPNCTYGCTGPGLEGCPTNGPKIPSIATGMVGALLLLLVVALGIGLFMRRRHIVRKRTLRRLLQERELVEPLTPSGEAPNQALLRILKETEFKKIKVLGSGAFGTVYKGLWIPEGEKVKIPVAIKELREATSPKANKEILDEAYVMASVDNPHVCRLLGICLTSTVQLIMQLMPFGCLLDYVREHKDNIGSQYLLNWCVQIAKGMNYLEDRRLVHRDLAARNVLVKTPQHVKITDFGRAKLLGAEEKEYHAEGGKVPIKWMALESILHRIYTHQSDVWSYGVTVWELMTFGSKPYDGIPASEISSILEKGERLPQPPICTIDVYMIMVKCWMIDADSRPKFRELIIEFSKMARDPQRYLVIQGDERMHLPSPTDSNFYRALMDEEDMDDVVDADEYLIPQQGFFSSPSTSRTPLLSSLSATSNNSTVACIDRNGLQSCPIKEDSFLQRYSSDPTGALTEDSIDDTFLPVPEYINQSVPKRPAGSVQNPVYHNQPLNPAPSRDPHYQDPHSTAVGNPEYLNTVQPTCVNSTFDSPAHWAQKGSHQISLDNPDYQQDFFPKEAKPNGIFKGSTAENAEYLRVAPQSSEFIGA

[15] = system: Her2 exon 20 insertion YVMA transduced NIH-3T3 cell line; assay: Cell proliferation, Her2 YVMAins NIH-3T3 (CellTiter-Glo, 72 h); type: cell-based; details: Mus musculus, NIH3T3, 72 h, Her2 YVMAins cells, 72 h proliferation; read-out: Her2 Exon 20 YVMA insertion GI50;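 note: viable cells quantified by ATP luminescence, growth over a day-zero baseline plate expressed as percent of DMSO control growth, compound dilution series in 10% FBS medium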
[16] = In vitro human hepatocytes clearance assay; details: both, human, cryopreserved human hepatocytes (suspension), human hepatocytes Clint (µL/min/10^6cells), mixed gender human hepatocytes, incubation up to 100 min
[17] = NCI-H1975, 72 h proliferation, read-out: EGFR L858R and T790M mutation GI50
[18] = Ba/F3 EGFR NPH ins, 72 h proliferation, read-out: EGFR Exon20 NPH insertion GI50
[19] = Ba/F3 EGFR ASV ins, 72 h proliferation, read-out: EGFR Exon20 ASV insertion GI50
[20] = A431, 72 h proliferation, read-out: EGFR WT A431 GI50
[21] = read-out: EGFR L858R and T790M mutation GI50 (nM)
[22] = read-out: EGFR Exon20 NPH insertion GI50 (nM)
[23] = read-out: EGFR Exon20 ASV insertion GI50 (nM)
[24] = read-out: EGFR WT A431 GI50 (nM)

Compound	GI50 [2, 17]	hepatocyte CLint at 1 µM [3]	GI50 [9, 18]	GI50 [12, 19]	GI50 [13, 20]	IC50 [1]	GI50 [4]	IC50 [5]	GI50 [6]	IC50 [10]	IC50 [11]	IC50 [14]	GI50 [15]	hepatocyte CLint at 1 µM [16]	GI50 ([7]; Ri-1, 72 h)	GI50 ([8]; Homo sapiens, OCI-Ly10, 72 h)	GI50 [2, 21]	GI50 [9, 22]	GI50 [12, 23]	GI50 [13, 24]	also measured
C=CC(=O)Nc1cc(Nc2ncnc(Nc3cc(Cl)c(F)cc3C(C)(O)CC)n2)c(OC)cc1N1CC[C@@H](N(C)C)C1 (single isomer, unassigned) [Compound 69, N-(5-(4-(5-chloro-4-fluoro-2-((R)-2-hydroxybutan-2-yl)phenylamino)-1,3,5-triazin-2-ylamino)-2-((R)-3-(dimethylamino)pyrrolidin-1-yl)-4-methoxyphenyl)acrylamide or N-(5-(4-(5-chloro-4-fluoro-2-((S)-2-hydroxybutan-2-yl)phenylamino)-1,3,5-triazin-2-ylamino)-2-((R)-3-(dimethylamino)pyrrolidin-1-yl)-4-methoxyphenyl)acrylamide]	5.5 nM	10.7 µL/min/1e6 cells	58.1 nM	70.1 nM	12.2 nM	56.2 nM	> 3000 nM	20.2 nM	10.1 nM	46.3 nM	33.1 nM	1.2 nM	89.1 nM	4.12 µL/min/1e6 cells							GI50 [7]: 13.9 nM; GI50 [8]: 74.5 nM
C=CC(=O)Nc1cc(Nc2nccc(Nc3cc(Cl)c(F)cc3C(C)(C)O)n2)c(OC)cc1N1C[C@H]2CN(C)[C@H]2C1 [Compound 89, N-(5-(4-(5-chloro-4-fluoro-2-(2-hydroxypropan-2-yl)phenylamino)pyrimidin-2-ylamino)-4-methoxy-2-((1R,5R)-6-methyl-3,6-diazabicyclo[3.2.0]heptan-3-yl)phenyl)acrylamide formic acid salt]						148 nM	> 3000 nM	23 nM	9.86 nM	14.8 nM	6.8 nM	0.7 nM	158 nM	3.84 µL/min/1e6 cells	17.5 nM	11.4 nM	2.8 nM	63.8 nM	115 nM	63.1 nM	
C=CC(=O)Nc1cc(Nc2nccc(Nc3cc(Cl)c(F)cc3C(C)(C)O)n2)c(OC)cc1N1C[C@@H]2CN(C)[C@@H]2C1 [Compound 97, N-(5-(4-(5-chloro-4-fluoro-2-(2-hydroxypropan-2-yl)phenylamino)pyrimidin-2-ylamino)-4-methoxy-2-((1 S,5 S)-6-methyl-3,6-diazabicyclo[3.2.0]heptan-3-yl)phenyl)acrylamide formic acid salt]						160 nM	> 3000 nM	14.4 nM	18.6 nM	17.4 nM	2.8 nM	0.7 nM	93.9 nM	4.25 µL/min/1e6 cells	54.7 nM	24 nM	3.4 nM	74.2 nM	86.7 nM	38 nM	
C=CC(=O)Nc1cc(Nc2nccc(Nc3cc(Cl)c(F)cc3C(C)(C)O)n2)c(OC)cc1N1CCC[C@@H]1CN1CCC1 [Compound 98, (R)-N-(2-(2-(azetidin-1-ylmethyl)pyrrolidin-1-yl)-5-(4-(5-chloro-4-fluoro-2-(2-hydroxypropan-2-yl)phenylamino)pyrimidin-2-ylamino)-4-methoxyphenyl) acrylamide formic acid salt]						190 nM	> 3000 nM	21.4 nM	71.5 nM	19.1 nM	3.1 nM	0.9 nM	135 nM	7.6 µL/min/1e6 cells	108 nM	115 nM	3.1 nM	112 nM	129 nM	87.8 nM	

Now from value to compound, other results behind:

GI50 [2, 17]	hepatocyte CLint at 1 µM [3]	GI50 [9, 18]	GI50 [12, 19]	GI50 [13, 20]	Compound	IC50 [1]	GI50 [4]	IC50 [5]	GI50 [6]	IC50 [10]	IC50 [11]	IC50 [14]	GI50 [15]	hepatocyte CLint at 1 µM [16]	GI50 ([7]; Ri-1, 72 h)	GI50 ([8]; Homo sapiens, OCI-Ly10, 72 h)	GI50 [2, 21]	GI50 [9, 22]	GI50 [12, 23]	GI50 [13, 24]	also measured
2.7 nM	78.4 µL/min/1e6 cells	26.5 nM	26.5 nM	12 nM	[2H]C([2H])([2H])N(CCN(C)c1cc(OC)c(Nc2ncnc(Nc3cc(F)c(F)cc3C(C)(C)O)n2)cc1NC(=O)C=C)C([2H])([2H])[2H] [Compound 22, N-(2-((2-(bis(methyl-d3)amino)ethyl)(methyl)amino)-5-((4-((4,5-difluoro-2-(2-hydroxypropan-2-yl)phenyl)amino)-1,3,5-triazin-2-yl)amino)-4-methoxyphenyl) acrylamide]	12.2 nM		8.7 nM		11.2 nM	5.5 nM	0.4 nM	44.4 nM	9.78 µL/min/1e6 cells							
1.6 nM	> 300 µL/min/1e6 cells	42.7 nM	37.8 nM	41.6 nM	C=CC(=O)Nc1cc(Nc2nccc(Nc3cc(Cl)c(F)cc3C(C)(C)O)n2)c(OC)cc1N(C)CCN(C)C [Compound 36, (N-(5-(4-(5-chloro-4-fluoro-2-(2-hydroxypropan-2-yl)phenylamino)pyrimidin-2-ylamino)-2-((2-(dimethylamino)ethyl)(methyl)amino)-4-methoxyphenyl)acrylamide)]		881 nM		8.32 nM		5.3 nM		75.2 nM	10.3 µL/min/1e6 cells	8.2 nM	6.41 nM					
2.2 nM		64.6 nM	69.6 nM	31.5 nM	C=CC(=O)Nc1cc(Nc2nccc(Nc3cc(Cl)c(F)cc3C(C)(C)O)n2)c(OC)cc1N1C[C@@H](C)C[C@@H]1CN(C)C [Compound 91, N-(5-(4-(5-chloro-4-fluoro-2-(2-hydroxypropan-2-yl)phenylamino)pyrimidin-2-ylamino)-2-((2R,4S)-2-((dimethylamino)methyl)-4-methylpyrrolidin-l-yl)-4-methoxyphenyl) acrylamide]	183 nM	> 3000 nM	41.2 nM	58 nM	26.2 nM	22.5 nM	1.5 nM	148 nM	8.57 µL/min/1e6 cells	79.4 nM	86.8 nM					
3.7 nM		20.5 nM	16 nM	2.9 nM	C=CC(=O)Nc1cc(Nc2ncnc(Nc3cc4cc[nH]c4cc3C(C)(C)O)n2)c(OC)cc1N(C)CCN(C)C [Compound 95, N-(2-((2-(dimethylamino)ethyl)(methyl)amino)-5-(4-(6-(2-hydroxypropan-2-yl)-1H-indol-5-ylamino)-1,3,5-triazin-2-ylamino)-4-methoxyphenyl)acrylamide]	3.5 nM	> 3000 nM	6.2 nM	1.16 nM	7.1 nM	2.2 nM	0.3 nM	15.8 nM		971 nM	0.29 nM					
